The values below come from patent US20180280528A1, “ANTIFOLATE CONJUGATES FOR TREATING INFLAMMATION” (ENDOCYTE, INC., priority 2015, published 2018).

The test system of data set [1] is Rat adjuvant arthritis (AIA). Kind of data set: Rat adjuvant arthritis (AIA) treatment studies. Format: in vivo. As for the experimental part: Female Lewis rats (175-200 g) were purchased from Harlan Sprague Dawley (Indianapolis, Ind.) and allowed to acclimate for 1 week. Generally, rats were fed a folate-deficient diet (Harlan Teklad) for 9-10 days prior to arthritis induction.
Rat adjuvant arthritis (AIA) was induced by intradermal inoculation (at the base of tail) of 0.45-0.46 mg of heat-killed Mycobacteria butyricum (BD Diagnostic Systems, Sparks, Md.) in 100 μL light mineral oil (Sigma). […] During the course of disease development, animals were weighed at least 3 times a week. Paw edema (degree of arthritis) were scored 3 times a week as follows: 0=no edema or arthritis; 1=swelling in one type of joint; 2=swelling in two types of joint; 3=swelling in three types of joint; 4=swelling of the entire paw. A total score for each rat is calculated by adding up the scores for each of the four paws, giving a maximum of 16 per animal.
On the first day of treatment, rats with desired arthritis scores were distributed evenly across the control and treatment groups (n=5). […] All compounds and conjugates were administered subcutaneously (s.c.) starting 9 days after arthritis induction with biweekly (BIW, Mondays and Thursdays) or once-a-week (QW, Mondays) dosing for two consecutive weeks. At the completion of each study (˜4 days after the last treatment), rats were euthanized by CO2 asphyxiation and processed for paw weight (cut at the hairline) and spleen weight.
The rat AIA model resembles many characteristics of human rheumatoid arthritis and it is very aggressive. […] The animals in the AIA control group were left untreated.

Another data set is described as follows: in vivo. On the procedure:
Each rat was used for collection of blood samples for a maximum of 4 time points. […] The samples were centrifuged for 3 minutes at 2000×g (Eppendorf 5417R centrifuge) to obtain plasma. The plasma samples were stored at −80° C. until LC-MS/MS analysis.
(§1) LC-MS/MS analysis utilized a Waters Acquity UPLC system paired with a Waters Quattro Premier XE tandem quadrupole mass spectrometer operating in ESI positive mode. Prior to injection, K3EDTA plasma samples were processed using a Phenomenex Strata X-A solid phase extraction (SPE) plate. All plasma samples were fortified with N-Maleoyl-β-alanine, mannitol, and acetic acid. Briefly, 50 μL of plasma diluted with 50 μL of internal standard solution and 500 μL 1000:4:1.5 water:ammonium hydroxide:formic acid was mixed and loaded onto a preconditioned Strata X-A SPE plate. Aqueous and organic washes were then applied followed by elution of all analytes with 300:200:7.5 methanol:water:formic acid. The samples were evaporated until approximately 30 μL remained in all wells and 30 μL of 9:1 water:ammonium hydroxide was then added. Finally, the plate was sealed, mixed, and centrifuged prior to transfer to the 2-8° C. Acquity autosampler. Note: During EC1669 analysis, EC0470 was converted to a hydrazone product for bioanalysis. Acetone (500 μL) was added to all samples after the first evaporation step followed by sealing all wells and heating at 50° C. for one hour. After this step, the acetone was evaporated and the extraction completed as described above.
(§2) A 10 μL sample volume was applied to the Waters BEH Shield RP18 100×2.1 mm, […] UPLC column operating at a flow rate of 0.4 mL/min while being maintained at 45° C. A gradient between mobile phase A (1000:4:1.5 water:ammonium hydroxide:formic acid) and mobile phase B (acetonitrile) was used to separate the analytes. The gradient was held at 2% B for the first 30 seconds of the chromatographic run followed by increasing to 20% B by 2.5 minutes. A rapid gradient from 60-90% B is then used to clean the column prior to equilibration at 2% B to complete the 4 minute run cycle.
(§3) For EC1669 MS/MS analysis, EC1669 and its known major metabolites, EC1886 and […], were optimized and monitored. […] In all cases, internal standard response was used to generate response ratios for each analyte. When calibrated, data was regressed using MassLynx 4.1 software. The table below lists transitions for analytes and internal standards monitored for LC-MS/MS bioanalysis.

A short description of the next data set: Pharmacokinetics in dogs. Particulars: for half-life: male. On the procedure:
(§4) The samples were centrifuged under refrigeration for at least 10 minutes at 3000 rpm and the plasma generated stored at −20° C. until LC-MS/MS analysis.
as §4, §1, §2, §3

Where [2] appears, read: female, Lewis, rat, in vivo, sc, 500 nmol/kg.
The mark [3] stands for this setting: beagle, dog, in vivo, sc, 2.4 mg/kg.
Where [4] appears, read: rat plasma, EC1669 dosed SC 500 nmol/kg.
Setting [5] is: beagle dog plasma, EC1669 dosed SC 2.4 mg/kg (1073 nmol/kg), N=4.

As to `COC(=O)[C@H](CCCCNC(=O)[C@H](CCC(=O)NC[C@H](O)[C@@H](O)[C@H](O)[C@H](O)CO)NC(=O)[C@H](CCC(=O)O)NC(=O)[C@H](CCC(=O)NC[C@H](O)[C@@H](O)[C@H](O)[C@H](O)CO)NC(=O)[C@H](CCC(=O)O)NC(=O)[C@H](CCC(=O)NC[C@H](O)[C@@H](O)[C@H](O)[C@H](O)CO)NC(=O)CC[C@H](NC(=O)c1ccc(NCc2cnc3nc(N)[nH]c(=O)c3n2)cc1)C(=O)O)NC(=O)CC[C@H](NC(=O)c1ccc(NCc2cnc3nc(N)[nH]c(=N)c3n2)cc1)C(=O)O` [EC2413], in data set [1] (Study 3, 500 nmol/kg, BIW), the anti-arthritic activity result is “significant anti-arthritic activity” and the body weight result is “maintained a good body weight”. Also, the “decreasing arthritis score, paw weight, and spleen weight” value in data set [1] (Study 3, 500 nmol/kg, BIW, two consecutive weeks) is “inferior to both EC2319 and EC1669”. For the same compound, the “effectiveness in all parameters assessed” value in data set [1] (Study 3, 1000 nmol/kg (QW)) is reported as “less effective than EC2413 dosed at 500 nmol/kg (BIW)”.

As to `Nc1nc(N)c2nc(CNc3ccc(C(=O)N[C@@H](CCC(=O)O)C(=O)O)cc3)cnc2n1` [EC1886, aminopterin, reference compound], in “in vivo” (setting [2]), the AUCinf is 95.6 nM·h; the AUClast was found to be 94.7 nM·h; the half-life – broadly, the time in which the quantity being followed falls by half – was 59.8 min. In “in vivo” (female, Lewis, rat, in vivo, sc, 500 nmol/kg, AUCinf), the AUC(0-inf) (in general, total exposure, with the tail of the curve extrapolated) came out at 0.107 µM·h. In the data set “Pharmacokinetics in dogs” (beagle dog plasma, EC2319 dosed SC 2.43 mg/kg (1074 nmol/kg), N=2), this compound had an AUClast of 157 nM·h. In “Pharmacokinetics in dogs” (setting [3]), the AUC(0-t) (as a rule, exposure summed from dosing to a finite time, without extrapolation to infinity) was 0.0417 µM·h; the peak level (Cmax) was 9.41 nM; the time to peak (Tmax) (commonly the time at which the peak concentration occurs) worked out at 3.5 h. Besides, in the data set “Pharmacokinetics in dogs” (dogs, subcutaneous dosing), the “AUClast of aminopterin released, higher from EC2319 than from EC1669” value is reported as roughly 3.8 fold and the “Cmax of aminopterin released, higher from EC2319 than from EC1669” value was roughly 2.6 fold. The compound also had a half-life in “Pharmacokinetics in dogs” (beagle, dog, in vivo, iv, 1 mg/kg) of 120 min. The same compound showed a half-life in “Pharmacokinetics in dogs” (beagle, dog, in vivo, sc, 2.43 mg/kg) of 164 min.

In the case of `COC(=O)[C@H](CSC1CC(=O)N(CCC(=O)O)C1=O)NC(=O)CC[C@H](NC(=O)c1ccc(NCc2cnc3nc(N)[nH]c(=N)c3n2)cc1)C(=O)O` (stereo partly shown) [EC2496], the half-life in “Pharmacokinetics in dogs” (beagle, dog, plasma, iv, 1 mg/kg) is 76.8 min; in the data set “Pharmacokinetics in dogs” (beagle, dog, plasma, sc, 2.43 mg/kg), 128 min.

In the case of `NNC(=O)CC[C@H](NC(=O)c1ccc(NCc2cnc3nc(N)nc(N)c3n2)cc1)C(=O)O` [EC0470, aminopterin gamma-hydrazide], in the data set “in vivo” (setting [4]), the AUCinf is 65.9 nM·h; the AUClast amounted to 64.7 nM·h; the Cmax (in general, the peak of the concentration-time curve) turned out to be 21.2 nM; the Tmax was found to be 1 h. In “in vivo” (setting [4]), this compound registered a t1/2 of 1.64 h. In “Pharmacokinetics in dogs” (setting [5]), the AUClast came to 510 nM·h, the Cmax came to 66.5 nM, the time to peak (Tmax) came to 3.25 h and the t1/2 was 4.38 h.

As to `N=c1[nH]c(N)nc2ncc(CNc3ccc(C(=O)N[C@@H](CCC(=O)NCCSSC[C@@H](NC(=O)[C@H](CCC(=O)NC[C@H](O)[C@@H](O)[C@H](O)[C@H](O)CO)NC(=O)[C@@H](CCC(=O)O)NC(=O)[C@H](CCC(=O)NC[C@H](O)[C@@H](O)[C@H](O)[C@H](O)CO)NC(=O)[C@@H](CCC(=O)O)NC(=O)[C@H](CCC(=O)NC[C@H](O)[C@@H](O)[C@H](O)[C@H](O)CO)NC(=O)CC[C@H](NC(=O)c4ccc(NCc5cnc6nc(N)[nH]c(=O)c6n5)cc4)C(=O)O)C(=O)O)C(=O)O)cc3)nc12` [EC2285], the “anti-arthritic activity with concurrent EC0923 (arthritis score, paw weight, spleen weight, body weight)” value in data set [1] (Study 2, 500 nmol/kg BIW plus 500-fold molar excess EC0923 (250 μmol/kg)) was “fully blocked by EC0923”.
